US11860161B2, “Detection and treatment of autoimmune disorders” (Seattle Children's Hospital, priority 2007, dated 2024)
“Also recorded” adds a separate entry of the source. Where a SMILES comes first, the peptide text is derived from it. The star is where a group is joined. Cbz = O=C(OCc1ccccc1)*; CH2F = FC*

Columns and labels:
human macrophages = conditions: cited from earlier work
Mo = conditions: in vitro, prior study; cited from earlier work
PD-L1 on APC = assay: PD-L1 surface expression on APC (Mo, mDC) of PBMC cultured with caspase inhibitors; type: cell-based, human
Method: (§1) In order to determine which caspase (or caspases) is responsible for downmodulation of PD-L1 during active lupus, the effects of specific caspase inhibitors on PD-L1 expression in human APC were tested (Table IV). Control and SLE PBMC were incubated for one day in the presence of the individual caspase inhibitors at doses ranging from 10 uM to 50 uM (R&D Systems), with the appropriate level of DMSO as the carrier control (0.5% final concentration). Treated cells were assayed for cell death and apoptosis using Annexin V and PI (example shown in FIG. 4), as well as stained for cell-surface expression of PD-L1 on APC.
(§2) PBMC were thawed, washed, and diluted to 1-2×10^6 cells/ml in culture medium consisting of RPMI 1640 with L-glutamine (CellGro), 10% heat-inactivated NB human serum (Valley Biomedical), 1% penicillin/streptomycin (CellGro), and 0.1% beta-mercaptoethanol. Cells were plated in round-bottom 96-well plates (Coming Costar) and incubated at 37° C. in a humidified cell chamber with 5% CO2. Some wells were treated with pan-/poly-caspase inhibitors at the time of plating: 50 uM Q- Val-Asp-(non-o-methylated)—OPh (OPH) or Z- Val-Ala-Asp-(beta-o-methyl)-fluroromethylketone (Z-VAD) (both from R&D Systems), or DMSO as the carrier control (0.5% final concentration).
(§3) At the timepoints indicated, cells were surface-stained using fluorochrome- or biotin-conjugated monoclonal antibodies: anti-CD1c, (Miltenyi), anti-CD3, anti-PD-L1 (eBioscience), anti-CD11b, anti-CD11c, anti-CD14, anti-CD-86, anti-PD-L2 (Pharmingen/BD Biosciences), anti-CD45RO, anti-CD80, anti-CD83, and/or anti-HLA-DR (BioLegend), with isotype-matched, fluorochrome/biotin-labeled irrelevant monoclonal antibodies as controls. All samples were blocked using 0.5% human serum and anti-FeR antibody (Miltenyi) during staining. Cells were fixed using 2% paraformaldehyde in PBS after preliminary experiments indicated no effect of cell fixation on expression levels of PD-L1 and other surface markers. To assess apoptosis, some cultures were stained in parallel with Annexin V and propidium iodide (PI) (both from Becton Dickinson) as per the manufacturer's instructions. Flow cytometry was performed using a FACSCalibur or LSR II cytometer (Becton Dickinson), and data were analyzed using FlowJo software (Macintosh Version 6.3).

PD-L2 = PD-L2 expression on APC with caspase inhibitors; type: cell-based, human; conditions: two healthy controls, through four days of culture (FIG. 5D)
Method: as §2
as §3, with “Cells were fixed using 2% paraformaldehyde in PBS after preliminary experiments indicated no effect of cell fixation on expression levels of PD-L1 and other surface markers. To assess apoptosis, some cultures were stained in parallel with Annexin V and propidium iodide (PI) (both from Becton Dickinson) as per the manufacturer's instructions.” left out

PBMC = PBMC cell death and apoptosis (Annexin V and PI) with caspase inhibitors; type: cell-based, human; conditions: 50 uM; control, SLE flare and SLE remission cultures; one day (FIG. 4B)
Method: as §1
The inhibitors enter living cells and bind irreversibly at the caspase active sites, preventing further proteolytic activity by the enzyme. After incubation with caspase inhibitors, PBMC were gated by forward and side scatter and analyzed for percent cell death and apoptosis using Annexin V and PI (see FIG. 10). […] However, higher doses of some caspase-specific inhibitors (50 uM), did alter PD-L1 levels, both in Mo and mDC (example shown in FIG. 11). Normal PBMC were incubated in medium with or without various caspase inhibitors, and PD-L1 protein levels assessed at day one. […]

[1] = tested on: APC surface markers CD80/86; assay: Other APC surface markers (CD80/86 etc.) with caspase inhibitors; type: cell-based, human; conditions: PBMC from healthy controls, SLE flare, SLE remission (FIG. 5B)
Method: as §2
as §3, with “Cells were fixed using 2% paraformaldehyde in PBS after preliminary experiments indicated no effect of cell fixation on expression levels of PD-L1 and other surface markers. To assess apoptosis, some cultures were stained in parallel with Annexin V and propidium iodide (PI) (both from Becton Dickinson) as per the manufacturer's instructions.” left out

T lymphocytes = assay: Foxp3 expression in T lymphocytes of PBMC cultures treated with OPH; type: cell-based, human; conditions: 50 uM; healthy control and SLE cultures; three days later
Method: PBMC were cultured as above and a duplicate well of each sample treated with 50 uM OPH. PD-L1 upregulation on APC was confirmed in these cultures, and an aliquot of each sample was incubated further in order to allow interaction of APC with autologous T cells in culture. Three days later, the cells were fixed and permeabilized, and the T lymphocytes were assayed for intracellular expression of the regulatory T cell protein, Foxp3.

leukocytes = conditions: cited from earlier work

In the case of “Infliximab: can cause a lupus-like syndrome in susceptible individuals”, the “caspase activation and apoptosis in human macrophages” value (human macrophages) is given as “promote caspase activation and apoptosis”.

For `Sc1ncnc2nc[nH]c12` [6-mercaptopurine], the “effect on markers of Mo differentiation and maturation” value (Mo) is listed as “no significant effect”.

In the case of `COC(=O)CC[C@H](NC(=O)[C@H](CC(=O)OC)NC(=O)OCc1ccccc1)C(=O)N[C@H](C(=O)N[C@@H](CC(=O)OC)C(=O)CF)C(C)C` [Z-DEVD-fmk], the PD-L1 levels (PD-L1 on APC; normal PBMC, control mDC, day one (FIG. 11)) is reported as “greatly increased”.

For `COC(=O)C[C@H](NC(=O)[C@H](C)NC(=O)[C@@H](NC(=O)OCc1ccccc1)C(C)C)C(=O)CF` [Z-VAD, Z- Val-Ala-Asp-(beta-o-methyl)-fluroromethylketone] (Cbz-Val-Ala-Asp(OMe)-CH2F), the PD-L2 expression (PD-L2) was “not increased” and the “reciprocal relationship between caspase activity and Mo PD-L1 expression” value (PD-L1 on APC; all PBMC treated) was “held true”.

For `COc1c(C)c2c(c(O)c1C/C=C(\C)CCC(=O)OCCN1CCOCC1)C(=O)OC2` [mycophenolate mofetil], the “effect on markers of Mo differentiation and maturation” value (Mo) is given as “no significant effect”.

For `CCN(CC)CCCC(C)Nc1ccnc2cc(Cl)ccc12` (stereo not drawn) [chloroquine], the “effect on markers of Mo differentiation and maturation” value (Mo) is listed as “no significant effect”.

In the case of `CC(C)[C@H](NC(=O)c1ccc2ccccc2n1)C(=O)N[C@@H](CC(=O)O)C(=O)COc1c(F)cccc1F` [OPH, Q- Val-Asp-(non-o-methylated)—OPh], the “apoptosis in PBMC” value (PBMC) is reported as “reduces”, the PD-L2 expression (PD-L2) is reported as “not increased” and the “other APC surface markers” value [1] is reported as “does not increase”. For the same compound, the “PD-L1 expression on the surface of both Mo and mDC” value (PD-L1 on APC; 50 uM, day one) was “increased”, the “PD-L1 expression in Mo compared to untreated” value (PD-L1 on APC; 50 uM, controls, SLE flare, SLE remission (FIG. 4C)) was “significantly increases” and the “PD-L1 on APC from healthy controls” value (PD-L1 on APC; CD80/86+ APC, one day (FIG. 7)) was “upregulated PD-L 1 further; also recorded: increased”. The “PD-L1 on PBMC” value (PD-L1 on APC; FIG. 5A) was “increases”, the “number of CD14int among PD-L1+ PBMC” value (PD-L1 on APC; FIG. 5A) was “increases” and the “mean percentage of Mo expressing PD-L1” value (PD-L1 on APC; SLE flare, 50 uM, untreated 45%) was 97%. For the same compound, the “mean percentage of mDC expressing PD-L1” value (PD-L1 on APC; all three groups, 50 uM, P<0.013) was “more than doubled”, the “increase of PD-L1 expression in immature mDC” value (PD-L1 on APC; all three groups, 50 uM, p<0.02) was “two- to three-fold” and the “PD-L1 levels in SLE flare APC” value (PD-L1 on APC; one day (FIG. 7)) was “approached those of untreated control cells; also recorded: restored normal levels”. For the same compound, the “level of Foxp3 expression (Foxp3 MFI and number of CD4+ cells expressing Foxp3)” value (T lymphocytes) was “remained unchanged”.

For `CN(C)CCCN1c2ccccc2Sc2ccc(Cl)cc21` [chlorpromazine], the “caspase activation and apoptosis in leukocytes” value (leukocytes) is listed as “activate caspases and trigger apoptosis”.
